Literature values as cited in patent publication US9095514B2, “Pharmaceutical composition” (SUN PHARMA ADVANCED RESEARCH COMPANY LTD., priority 2009, dated 2015).

CC(C)C[C@H](NC(=O)[C@H](Cc1ccccc1)NC(=O)c1cnccn1)B(O)O [Bortezomib, N-(2-pyrazine) carbonyl-L-phenylalanine-L-leucine boronic acid]
stability in certain solvents (Sara Wu et al J. Pharm. Sci 89): quite unstable | solubility of solid bortezomib (at 1 mg/ml in 0.9% w/v of sodium chloride): not soluble | not stable for longer than (stored at 2° C.-8° C., U.S. Pat. No. 6,713,446): 3-6 months | stable for (HPLC purity>97%) (stored at −2° C. to −20° C., U.S. Pat. No. 6,713,446): more than 2 years
